ChEMBL document CHEMBL1127926, “Preparation and antitumor activity of [N-alkyl-Ala2]RA-VII, antitumor cyclic hexapeptide” (Bioorg Med Chem Lett, 1994)
Converted amounts (≈) assume the structure as drawn.

Legend:
KB = experiment: Cytotoxicity in human epidermoid carcinoma of the nasopharynx(KB) cells; type: functional, cell-based
P388 = experiment: Cytotoxicity in murine lymphocytic leukemia (P388) cells; type: functional, cell-based; conditions: Mus musculus
Mus musculus [1] = experiment: Antitumor activity against P388 leukemia cells was determined in mice at a dose 1.6 mg/kg administered i.p. on days 1-5; type: functional; conditions: route intraperitoneal
Mus musculus [2] = experiment: Antitumor activity against P388 leukemia cells was determined in mice at a dose 6.25 mg/kg administered i.p. on days 1-5; type: functional; conditions: route intraperitoneal
Mus musculus [3] = experiment: Antitumor activity against P388 leukemia cells was determined in mice at a dose 0.4 mg/kg administered i.p. on days 1-5; type: functional; conditions: route intraperitoneal
Mus musculus [4] = experiment: Antitumor activity against P388 leukemia cells was determined in mice at a dose 6.25 mg/kg administered i.p. on days 1-5; Toxic; type: functional, organism-based; parameters: dose 6.25 mg/kg
Mus musculus [5] = experiment: Antitumor activity against P388 leukemia cells was determined in mice at a dose 3.13 mg/kg administered i.p. on days 1-5; type: functional; conditions: route intraperitoneal
Mus musculus [6] = experiment: Antitumor activity against P388 leukemia cells was determined in mice at a dose 0.8 mg/kg administered i.p. on days 1-5; type: functional; conditions: route intraperitoneal
Mus musculus [7] = experiment: Antitumor activity against P388 leukemia cells was determined in mice at a dose 25.0 mg/kg administered i.p. on days 1-5; type: functional; conditions: route intraperitoneal
Mus musculus [8] = experiment: Antitumor activity against P388 leukemia cells was determined in mice at a dose 12.5 mg/kg administered i.p. on days 1-5; type: functional; conditions: route intraperitoneal

| SMILES | IC50 (KB) | IC50 (P388) | T/C (Mus musculus [1]) | T/C (Mus musculus [2]) | T/C (Mus musculus [3]) | other results |
| --- | --- | --- | --- | --- | --- | --- |
| C=C(C)CN1C(=O)[C@@H](C)NC(=O)[C@@H]2Cc3ccc(OC)c(c3)Oc3ccc(cc3)C[C@@H](C(=O)N2C)N(C)C(=O)[C@H](C)NC(=O)[C@H](Cc2ccc(OC)cc2)N(C)C(=O)[C@@H]1C | 0.027 µg/mL (≈ 0.0327 µM) | 0.009 µg/mL (≈ 0.0109 µM) | – | – | – | – |
| COc1ccc(C[C@H]2C(=O)N[C@@H](C)C(=O)N(C)[C@H]3Cc4ccc(cc4)Oc4cc(ccc4OC)C[C@@H](C(=O)N[C@H](C)C(=O)N(C/C=C/c4ccccc4)[C@@H](C)C(=O)N2C)N(C)C3=O)cc1 | 0.03 µg/mL (≈ 0.0338 µM) | 0.0094 µg/mL (≈ 0.0106 µM) | – | – | – | – |
| C=CCN1C(=O)[C@@H](C)NC(=O)[C@@H]2Cc3ccc(OC)c(c3)Oc3ccc(cc3)C[C@@H](C(=O)N2C)N(C)C(=O)[C@H](C)NC(=O)[C@H](Cc2ccc(OC)cc2)N(C)C(=O)[C@@H]1C | 0.013 µg/mL (≈ 0.016 µM) | 0.015 µg/mL (≈ 0.0185 µM) | – | – | – | – |
| C/C=C/CN1C(=O)[C@@H](C)NC(=O)[C@@H]2Cc3ccc(OC)c(c3)Oc3ccc(cc3)C[C@@H](C(=O)N2C)N(C)C(=O)[C@H](C)NC(=O)[C@H](Cc2ccc(OC)cc2)N(C)C(=O)[C@@H]1C | 0.018 µg/mL (≈ 0.0218 µM) | 0.0076 µg/mL (≈ 0.00921 µM) | 127% | 155% | 112% | – |
| COc1ccc(C[C@H]2C(=O)N[C@@H](C)C(=O)N(C)[C@H]3Cc4ccc(cc4)Oc4cc(ccc4OC)C[C@@H](C(=O)N[C@H](C)C(=O)N[C@@H](C)C(=O)N2C)N(C)C3=O)cc1 | 0.0023 µg/mL (≈ 0.00298 µM) | 0.0013 µg/mL (≈ 0.00169 µM) | 152% | – | 144% | Activity (Mus musculus [4]): Toxic; T/C (Mus musculus [5]): 163%; T/C (Mus musculus [6]): 144% |
| CCCN1C(=O)[C@@H](C)NC(=O)[C@@H]2Cc3ccc(OC)c(c3)Oc3ccc(cc3)C[C@@H](C(=O)N2C)N(C)C(=O)[C@H](C)NC(=O)[C@H](Cc2ccc(OC)cc2)N(C)C(=O)[C@@H]1C | 0.0097 µg/mL (≈ 0.0119 µM) | 0.0032 µg/mL (≈ 0.00394 µM) | – | – | – | – |
| COc1ccc(C[C@H]2C(=O)N[C@@H](C)C(=O)N(C)[C@H]3Cc4ccc(cc4)Oc4cc(ccc4OC)C[C@@H](C(=O)N[C@H](C)C(=O)N(C)[C@@H](C)C(=O)N2C)N(C)C3=O)cc1 | 0.0077 µg/mL (≈ 0.00981 µM) | 0.0012 µg/mL (≈ 0.00153 µM) | – | – | – | – |
| CCN1C(=O)[C@@H](C)NC(=O)[C@@H]2Cc3ccc(OC)c(c3)Oc3ccc(cc3)C[C@@H](C(=O)N2C)N(C)C(=O)[C@H](C)NC(=O)[C@H](Cc2ccc(OC)cc2)N(C)C(=O)[C@@H]1C | 0.035 µg/mL (≈ 0.0438 µM) | 0.035 µg/mL (≈ 0.0438 µM) | – | – | – | – |
| COc1ccc(C[C@H]2C(=O)N[C@@H](C)C(=O)N(C)[C@H]3Cc4ccc(cc4)Oc4cc(ccc4OC)C[C@@H](C(=O)N[C@H](C)C(=O)N(C/C=C(\C)CCC=C(C)C)[C@@H](C)C(=O)N2C)N(C)C3=O)cc1 | 0.062 µg/mL (≈ 0.0683 µM) | 0.044 µg/mL (≈ 0.0485 µM) | 131% | 148% | 119% | T/C (Mus musculus [7]): 164% |
| CCCCN1C(=O)[C@@H](C)NC(=O)[C@@H]2Cc3ccc(OC)c(c3)Oc3ccc(cc3)C[C@@H](C(=O)N2C)N(C)C(=O)[C@H](C)NC(=O)[C@H](Cc2ccc(OC)cc2)N(C)C(=O)[C@@H]1C | 0.024 µg/mL (≈ 0.029 µM) | 0.01 µg/mL (≈ 0.0121 µM) | – | – | – | – |
| COc1ccc(C[C@H]2C(=O)N[C@@H](C)C(=O)N(C)[C@H]3Cc4ccc(cc4)Oc4cc(ccc4OC)C[C@@H](C(=O)N[C@H](C)C(=O)N(CC=C(C)C)[C@@H](C)C(=O)N2C)N(C)C3=O)cc1 | 0.0064 µg/mL (≈ 0.00763 µM) | 0.0058 µg/mL (≈ 0.00691 µM) | 132% | 160% | 123% | T/C (Mus musculus [8]): 174% |
| CCCCCN1C(=O)[C@@H](C)NC(=O)[C@@H]2Cc3ccc(OC)c(c3)Oc3ccc(cc3)C[C@@H](C(=O)N2C)N(C)C(=O)[C@H](C)NC(=O)[C@H](Cc2ccc(OC)cc2)N(C)C(=O)[C@@H]1C | 0.063 µg/mL (≈ 0.0749 µM) | 0.018 µg/mL (≈ 0.0214 µM) | – | – | – | – |
| CC/C=C/CN1C(=O)[C@@H](C)NC(=O)[C@@H]2Cc3ccc(OC)c(c3)Oc3ccc(cc3)C[C@@H](C(=O)N2C)N(C)C(=O)[C@H](C)NC(=O)[C@H](Cc2ccc(OC)cc2)N(C)C(=O)[C@@H]1C | 0.022 µg/mL (≈ 0.0262 µM) | 0.01 µg/mL (≈ 0.0119 µM) | 125% | 155% | 113% | – |
